Test results as given in US4975437A, “Isomers of 1-azabicyclo(2.2.2)oct-3-yl 1,4-dihydro-2,6-dimethyl-4-(3-nitrophenyl)-5-nitropyridine-3-carboxylate” (Marion Laboratories, Inc., priority 1989, dated 1990).
Structures can show the parent of a compound that is named as a salt. Where two headings read alike, the source gives them in different places.

Assays:
[1] = system: voltage sensitive calcium channels; assay: Potentiation of Calcium Influx across the Membrane (Quin 2 fluorescence); format: cell-based, murine; details: NG108-15 (NGI08-15 [sic]) cells, KCl 50 mM depolarization, 37° C, percent enhancement over potassium chloride stimulation
Procedure: This test system was developed to evaluate the relative ability of compounds to potentiate calcium influx into cells via voltage sensitive calcium channels. The technique employs a high calcium affinity fluorescent dye to monitor changes in intracellular free calcium concentrations. The cells are incubated with a protected non-fluorescent form of the calcium sensitive dye. This compound permeates the cell wall and enters the cell. There it is transformed by enzymes into the fluorescent dye Quin 2 which cannot leave the cell Quin 2 has a high affinity for calcium ions and when calcium is bound to the dye, the complex fluoresces, the intensity of the fluorescence being proportional to the concentration of calcium ions. Voltage sensitive calcium channels are activated by the addition of potassium chloride to the media and calcium ion influx occurs. The increase in fluorescence is measured, giving a relative measure of calcium influx, the control value. In a separate cuvette, both potassium chloride and the test compound are administered to the cells and the fluorescence measured. A calcium agonist should increase influx of calcium into the cells and therefore an increase in the fluorescence. The percent stimulation above control is obtained from the increase in fluorescence.
Differentiated murine neuronal (neuroblastoma x glioma) hybrid cells (NGI08-15) which contain an abundance of voltage dependant calcium channels were used as a source of tissue for testing these compounds.
Briefly, NGI08-15 cells were cultured in 10% CO2 at 37° C. in Dulbecco's modified Eagle's medium (DMEM) supplemented with glutamine (1.0 mM). fetal bovine serum (FBS; 10%). and hypoxanthine (100 μM), aminopterin (1.0 μM). and thymidine (20 μM). Differentiation was induced by treatment with dibutyl cyclic AMP (4 days, 1.0 mM) [L. Noronha-Blob, C. […] Dispersed cells (5×10^6 cells/mL) were incubated with quin 2 acetoxymethyl ester (quin 2-AM, the calcium specific dye) [100 μM. in dimethyl sulfoxide (DMSO)] for 60 minutes at 37° C. The control suspensions received only DMSO. Cells were then diluted in ice-cold media, centrifuged and washed twice (1,500×g, 3 minutes) in ice-cold HEPES buffer (composition: 130 mM NaCl, 5.0 mM KCl, 6.0 mM glucose, 1.0 mM MgCl2, 1.0 mM CaCl2, and 20 mM HEPES, pH 7 4).
The change in fluorescence was calculated from the difference between final and initial values. The results were expressed as a percent enhancement over potassium chloride stimulation (control).

[2] = system: smooth muscle (longitudinal muscle of ileum); assay: Enhancement of Calcium Ion Evoked Smooth Muscle Contractility (isolated ileum longitudinal muscle); details: guinea pig ileum; for Concentration at Maximum Enhancement: concentration of compound that produced the maximum enhancement; for Maximum Enhancement (% maximum contraction): 6 min; for minimal effective concentration: lowest concentration that produced enhancement of calcium evoked contraction, 37° C, read-out: Threshold for Enhancement
From the text: This test is a measure of the ability of test compounds to enhance muscle contraction caused by calcium ions. A sample of muscle was placed under tension in a device to measure its length and contracted by addition of potassium chloride (to activate the calcium channels) followed by addition of a calcium ion solution. The addition of a calcium agonist should cause the influx of additional calcium ions and thereby cause further contraction of the muscle. The lowest concentration of test compound necessary to evoke this additional contraction was measured, as were the maximum contraction obtained and the concentration at which it was reached
The ileum of male albino guinea pigs were cut into 3-4 cm segments. The longitudinal muscle, with myenteric plexus attached, was separated from the circular muscle. […] Each preparation was suspended under resting tension of 0.3 g. The tissues were switched to calcium free Tryodes solution for 24 minutes. with complete replacement of the solution every four minutes. Potassium chloride was then added to produce a bath concentration of […], and calcium solutions were cumulatively added to increase the bath calcium ion concentration to 0.2-8.0 mM. The tissues were re-equilibrated in normal Tyrodes and then calcium free Tyrodes. Enhancement of calcium evoked contractions in the presence of drug were determined by repeating the cumulative addition procedure after the tissues were exposed to the drug for six minutes. Responses were expressed relative to the maximum contraction elicited by calcium ion in the absence of the drug.

[3] = system: isolated guinea pig atrium; details: cited from earlier work
[4] = system: isolated rabbit aortic strips; details: cited from earlier work
rabbit aortic rings = details: cited from earlier work
[5] = system: radioactive calcium uptake; details: cited from earlier work
[6] = in words; cited from earlier work
[7] = system: extracellular calcium ions; details: in words, dose-dependent; cited from earlier work
[8] = increase above control as percent of maximum control calcium evoked contraction, 6 min drug exposure

## CC1=C(C(=O)OC2CN3CCC2CC3)C(c2cccc([N+](=O)[O-])c2)C([N+](=O)[O-])=C(C)N1 (single isomer, unassigned) [(-a, +b), (-a, +b)-1-Azabicyclo[2.2.2]oct-yl 1.4-Dihydro-2,6-dimethyl-4-(3-nitrophenyl)-5-nitropyridine-3-carboxylate fumarate]
[1]
  % Stimulation Above Control: 25%
[2]
  Concentration at Maximum Enhancement: 1000 nM
[2]; [8]
  Maximum Enhancement (% maximum contraction): 13%
[2]; 6 min drug exposure
  minimal effective concentration: 100 nM

## CC1=C(C(=O)OC2CN3CCC2CC3)C(c2cccc([N+](=O)[O-])c2)C([N+](=O)[O-])=C(C)N1 (single isomer, unassigned) [(-a, -b), (-a, -b)-1-Azabicyclo[2.2.2]oct-3-yl 1,4-Dihydro-2,6-dimethyl-4-(3-nitrophenyl)-5-nitropyridine-3-carboxylate fumarate]
[1]
  % Stimulation Above Control: 10%
[2]
  Concentration at Maximum Enhancement: 10 nM
[2]; [8]
  Maximum Enhancement (% maximum contraction): 18%
[2]; 6 min drug exposure
  minimal effective concentration: 10 nM

## CC1=C(C(=O)Nc2ccccc2)C(c2ccccc2Cl)C(C(=O)OCCc2ccccn2)=C(C)N1 (centres unmarked) [YC-170]
[3]; isolated guinea pig atrium
  inotropic effect in atrium: positive inotropic effect
[3]; partially depolarized with a low concentration of potassium
  contractile tension in atrium: decrease in contractile tension
[4]; isolated rabbit aortic strips
  contraction of aortic strips: induced contraction
[4]; precontracted by a high concentration of potassium
  relaxant effect on aorta: relaxant effect

## CC1=C(C(=O)OC(C)C)[C@H](c2cccc3nonc23)C([N+](=O)[O-])=C(C)N1 [S enantiomer]
Rabbit aortic rings; single enantiomer, in words
  concentration-response curve for depolarization-induced contraction: shifted the concentration-response curve for depolarization-induced contraction in an almost parallel fashion to the left
  contraction: enhanced contraction
[5]; single enantiomer, in words
  radioactive calcium uptake: enhanced radioactive calcium uptake dependently at all levels of depolarization

## COC(=O)C1=C(C)NC(C)=C([N+](=O)[O-])C1c1ccccc1C(F)(F)F (centres unmarked) [BAY K 8644, Methyl 1,4-dihydro-2,6-dimethyl-5-nitro-4-(2-trifluoromethylphenyl)-3-pyridine carboxylate]
[1]
  % Stimulation Above Control: 38%
[2]; Cavia porcellus, 0.1 h, increase above control as percent of maximum control calcium evoked contraction, 6 min drug exposure
  Emax: 38%
[2]; Cavia porcellus, 0.1 h, 6 min drug exposure
  minimal effective concentration: 10 nM
[2]
  Concentration at Maximum Enhancement: 100 nM
[6]
  inotropic effect: potent positive inotropic effects

## CC1=C(C(=O)OC(C)C)C(c2cccc3nonc23)C([N+](=O)[O-])=C(C)N1 (racemic) [Example 202-792, 2-propyl 4-(4-benzofurazanyl)-1,4-dihydro-2,6-dimethyl-5-nitropyridine-3-carboxylate]
Rabbit aortic rings; high levels of depolarization
  contraction of aortic rings: inhibited contraction
Rabbit aortic rings; low levels of depolarization
  contraction of aortic rings: enhanced contractions of rabbit aortic rings at low levels of depolarization
[5]; high levels of depolarization
  radioactive calcium uptake: inhibited contraction and radioactive calcium uptake at high levels of depolarization

## CC1=C(C(=O)OC(C)C)[C@@H](c2cccc3nonc23)C([N+](=O)[O-])=C(C)N1 [R enantiomer]
Rabbit aortic rings; single enantiomer, in words
  contraction: inhibited contraction
  stimulant activity: no stimulant activity
[5]; single enantiomer, in words
  radioactive calcium uptake: inhibited contraction and radioactive calcium uptake

## CCOC(=O)C1=C(C)NC2=C(C(=O)OC2)C1c1ccccc1OC(F)F (centres unmarked) [CGP 28392, ethyl 4-[2-(difluoromethoxy)phenyl]-1,4,5,7-tetrahydro-2-methyl-5-oxofuro[3,4-b]pyridine-3-carboxylate]
[7]
  concentration of extracellular calcium ions: increase in a dose-dependent manner the concentration of extracellular calcium ions

## CC1=C(C(=O)OC2CN3CCC2CC3)C(c2cccc([N+](=O)[O-])c2)C([N+](=O)[O-])=C(C)N1 (single isomer, unassigned) [(+a, +b), (+a, +b)-1-Azabicyclo[2.2.2]oct-3-yl 1,4-Dihydro-2,6-dimethyl-4-(3-nitrophenyl)-5-nitropyridine-3-carboxylate fumarate]
[1]
  % Stimulation Above Control: 20%
[2]
  Concentration at Maximum Enhancement: 100 nM
[2]; [8]
  Maximum Enhancement (% maximum contraction): 11%
[2]; 6 min drug exposure
  minimal effective concentration: 10 nM

## CC1=C(C(=O)OC2CN3CCC2CC3)C(c2cccc([N+](=O)[O-])c2)C([N+](=O)[O-])=C(C)N1 (single isomer, unassigned) [(+a, -b), (+a, -b)-1-Azabicyclo[2.2.2]oct-3-yl 1,4-Dihydro-2,6-dimethyl-4-(3-nitrophenyl)-5-nitropyridine-3-carboxylate fumarate]
[1]
  % Stimulation Above Control: 31%
[2]
  Concentration at Maximum Enhancement: 10 nM
[2]; [8]
  Maximum Enhancement (% maximum contraction): 15%
[2]; 6 min drug exposure
  minimal effective concentration: 10 nM
